Laboratory results published in patent US11773132B2, “Cyclic di-nucleotides as stimulator of interferon genes modulators” (Beijing Xuanyi PharmaSciences Co., Ltd., priority 2017, dated 2023).

Target: T1, Human STING (Homo sapiens, UniProt Q86WV6, G230A/H232R/R293Q/R71H)
T1 construct: host or cells: THP1-Dual cells (human monocytic reporter line)
Test: THP1-Dual cell assay, IRF pathway reporter luminescence readout (QUANTI-Luc)
Assay type: cell-based
Details: THP1-Dual cells, 24 h, 30 μM, Table 2
Experimental: STING pathway activation by the compounds described herein was measured using THP-1 dual cells. These cells are THP1 monocytes that have been modified to be reporters for the IRF pathway, which is activated by STING agonists in these cells.
THP1-Dual cells (obtained from Invivogen) are maintained in growth medium with 100 ug/ml of Zeocin and 10 ug/ml of blasticidin at 37° C., 5% CO2, the cells were passaged every 3 days by inoculating 7×10^5 cells per ml and centrifuged at 1000 rpm for 5 min. Supernatant was removed and THP-1 Dual cells were re-suspended at 5×10^5 cells/ml in fresh pre-warmed growth medium.
[…]. 50 ul of Cell suspension (about 2.5×10^4 cells per well) was added in 384-well plate, which was incubated for 24 hours at 37° C., 5% CO2. QUANTI-Luc was prepared and used following the manufacturer's instructions, 5×10^3 cells per well were seeded in 40 μl medium and incubated overnight. Luminometer was set with the following parameters: 50u of injection, end-point measurement with a 4 second start time and 0.1 second reading time. 10 ul of THP-1 Dual cell culture medium per well was added into a 96-well white (opaque) plate, luminescence was measured and calculated.

T1 sequence (Q86WV6 whole entry R71H/G230A/H232R/R293Q): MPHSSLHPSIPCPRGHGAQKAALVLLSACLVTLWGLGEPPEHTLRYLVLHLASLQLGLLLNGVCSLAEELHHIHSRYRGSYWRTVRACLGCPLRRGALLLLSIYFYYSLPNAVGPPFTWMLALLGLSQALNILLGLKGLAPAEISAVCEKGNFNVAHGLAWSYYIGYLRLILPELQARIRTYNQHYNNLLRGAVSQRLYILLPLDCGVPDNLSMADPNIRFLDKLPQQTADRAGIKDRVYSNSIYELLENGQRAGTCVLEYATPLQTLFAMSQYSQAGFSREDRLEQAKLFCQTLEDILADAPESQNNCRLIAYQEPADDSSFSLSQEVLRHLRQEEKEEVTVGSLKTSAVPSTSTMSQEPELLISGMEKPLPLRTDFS

Structure (SMILES): BP1(=O)OC[C@H]2O[C@@H](n3cnc4c(NCc5ccccc5)ncnc43)[C@H](OP(=O)(S)OC[C@H]3O[C@@H](n4cnc5c(NCc6ccccc6)ncnc54)[C@H](O)[C@@H]3O1)[C@@H]2O (single isomer, unassigned) [Compound D3]
- Readout Average: 273875
- Readout n = 1: 289010
- Readout n = 2: 258740

Structure (SMILES): BP1(=O)OC[C@H]2O[C@@H](n3cnc4c(NCc5ccccc5)ncnc43)[C@H](OP(=O)(S)OC[C@H]3O[C@@H](n4cnc5c(NCc6ccccc6)ncnc54)[C@H](O)[C@@H]3O1)[C@@H]2O (single isomer, unassigned) [Compound D4]
- Readout Average: 510240
- Readout n = 1: 534040
- Readout n = 2: 486440
